Data published in patent publication US12590062B2, “PD-1/PD-L1 inhibitors” (Gilead Sciences, Inc., priority 2017, dated 2026).

Assays:
[1] = biological target: T1, PD-L1 (Homo sapiens, UniProt Q9NZQ7); assay: PD-L1/PD-L1 dimerization biochemical protein-protein interaction assay (ALPHA); format: binding; conditions: compound-induced PD-L1 dimerization, head prints '1 nM' (0.5 nM His-tagged PD-L1 and 0.5 nM FLAG-tagged PD-L1), read-out: AC50 PDL1 Dimer Alpha 1 nM
T1 construct: determine if they can specifically dimerize the extracellular domains of PD-L1
Method in brief: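 ALPHA proximity assay of compound-induced dimerization of 0.5 nM His-tagged and 0.5 nM FLAG-tagged PD-L1 extracellular domains in Hepes pH 7.4 buffer, 2 h at 25 °C. Anti-His acceptor then anti-FLAG donor beads, 60 min each; AC50 from four-parameter fit.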

[2] = biological target: T2, PD-1/PD-L1 interaction (Homo sapiens, UniProt Q9NZQ7); assay: PD-1/PD-L1 NFAT reporter co-culture assay; format: cell-based; conditions: Jurkat PD-1 NFAT-luciferase cells co-cultured with aAPC-PD-L1 CHO cells, 6 hrs at 37° C.; read-out: EC50 NFAT Luciferase
T2 construct: expressed in transfected cells; host or cells: CHO cells (aAPC-PD-L1) co-cultured with Jurkat cells overexpressing PD-1 and an NFAT-luciferase reporter
Method in brief: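 CHO aAPC-PD-L1 seeded overnight; PD-1/NFAT-luc Jurkat + cpd in RPMI 1640, 2% FBS added at once; 6 h, 37 °C; ONE-Glo luminescence; EC50, 4-parameter fit.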

[3] = biological target: PD-1/PD-L1 (Homo sapiens, UniProt Q9NZQ7); assay: PD-1/PD-L1 biochemical protein-protein interaction assay (ALPHA); format: binding; conditions: 0.3 nM His tagged PD-L1, 2.5 nM biotinylated Fc-PD-1, 60 minutes at 25° C., read-out: IC50 PD-L1-PD-1 Alpha IC50-mono PD-L1-fcP-D1
Method in brief: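 Extracellular-domain binding of His-tagged PD-L1 (0.3 nM final) to biotinylated Fc-PD-1 (2.5 nM final) was measured by ALPHA in 25 mM Hepes pH 7.4, 150 mM NaCl, 3.4 mM EDTA, 0.005% Tween 20, 0.01% BSA. After 60 min at 25° C, anti-His acceptor and streptavidin donor beads were added; IC50 from four-parameter fits.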

T2 sequence (Q9NZQ7 19-290): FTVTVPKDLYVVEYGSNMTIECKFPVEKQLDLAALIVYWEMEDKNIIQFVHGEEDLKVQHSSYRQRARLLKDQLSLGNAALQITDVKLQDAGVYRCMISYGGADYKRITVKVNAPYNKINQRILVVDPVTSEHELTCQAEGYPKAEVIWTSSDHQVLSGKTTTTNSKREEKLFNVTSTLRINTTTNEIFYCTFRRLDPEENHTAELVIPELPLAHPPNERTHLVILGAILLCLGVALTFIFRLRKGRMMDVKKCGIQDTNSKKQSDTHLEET
PD-1/PD-L1, sequence (Q9NZQ7 19-238 limits assumed): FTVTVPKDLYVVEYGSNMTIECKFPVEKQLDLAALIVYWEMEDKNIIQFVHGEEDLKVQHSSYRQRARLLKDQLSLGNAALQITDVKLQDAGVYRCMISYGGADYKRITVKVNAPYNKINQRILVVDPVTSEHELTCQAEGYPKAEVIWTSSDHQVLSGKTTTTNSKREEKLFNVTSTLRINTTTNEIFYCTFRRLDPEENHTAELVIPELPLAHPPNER
T1 sequence (Q9NZQ7 19-238 limits assumed): as above
T1 sequence (Q9NZQ7 19-238 limits assumed): as above

SMILES	AC50 [1] [nM]	EC50 [2] [nM]	IC50 [3] [nM]
COc1nc(-c2cccc(-c3cccc(-c4nc5cc(CNCCO)ccc5o4)c3Cl)c2Cl)ccc1CNCCO [Example 636]	83.6	180	0.188
N#Cc1cncc(COc2nc(OCc3cccc(-c4cccc(-c5ccc(OCCNCCO)cc5)c4Cl)c3Cl)c(Cl)cc2CN2C[C@@H](O)C[C@H]2C(=O)O)c1 [Example 560]	77.8	163	0.135
COc1nc(O[C@H]2CCc3c(-c4cccc(-c5ccc(C6=NCCN6)c(OC)n5)c4Cl)cccc32)c(Br)cc1CNC(C)(C)C(=O)O [Example 786]	12.2	86	0.064
COc1nc(-c2cccc(-c3cccc(COc4nc(OC)c(CNC[C@@H](O)CC(=O)O)cc4Cl)c3Cl)c2Cl)ccc1CNC[C@@H]1CCC(=O)N1 [Example 590]	134	140	0.186
Cc1c(COc2cc(OCc3cncc(C#N)c3)c(CNC[C@@H](O)CC(=O)O)cc2Cl)cccc1-c1cccc(-c2ccc(CNC[C@@H]3CCC(=O)N3)cc2)c1C [Example 574]	56	72	0.071
COc1nc(O[C@H]2CCc3c(-c4cccc(-c5ccc(C6=N[C@@H](C)CN6)c(OC)n5)c4Cl)cccc32)c(Br)cc1CN1CC[C@H](O)[C@H](F)C1 [Example 774]	2730	463	1.31
Cc1c(COc2cc(OCc3cncc(C#N)c3)c(CN[C@@](C)(CO)C(=O)O)cc2Cl)cccc1-c1cccc(-c2ccc(OCCNC[C@H]3CCC(=O)N3)cc2)c1C [Example 518]	96.1	159	0.064
COc1nc(-c2cccc(-c3cccc(COc4cc(OCc5cncc(C#N)c5)c(CNC[C@@H](O)CC(=O)O)cc4Cl)c3C)c2C)ccc1C1=NCCN1 [Example 505]	55	80	0.064
Cc1c(COc2cc(OCc3cncc(C#N)c3)c(CN[C@@](C)(CO)C(=O)O)cc2Cl)cccc1-c1cccc(-c2cccc([C@H](C)N)c2)c1C [Example 499]	86.5	59	0.093
N#Cc1cncc(COc2cc(O[C@H]3CCc4c(-c5cccc(-c6nc7ccc(CNC[C@@H]8CCC(=O)N8)cn7n6)c5Cl)cccc43)c(Cl)cc2CNC[C@@H]2CCC(=O)N2)c1 [Example 802]	55.5	177	0.084
COc1nc(-c2cccc(-c3cccc4c3CC[C@@H]4Oc3nc(OC)c(CN[C@@](C)(CO)C(=O)O)cc3Br)c2Br)ccc1CNC[C@@H]1CCC(=O)N1 [Example 697]	51	50	0.068
COc1nc(O[C@H]2CCc3c(-c4cccc(-c5ccc(CNC[C@@H]6CCC(=O)N6)cc5)c4Cl)cccc32)c(Cl)cc1CN1CCC[C@H]1C(=O)O [Example 725]	14.3	88	0.064
N#Cc1cncc(COc2nc(O[C@H]3CCc4c(-c5cccc(-c6ccc(OCCNCCO)cc6)c5Cl)cccc43)ccc2CNC[C@@H](O)CC(=O)O)c1 [Example 661]	126	159	0.256
Cc1c(COc2cc(OCc3cncc(C#N)c3)c(CN[C@H]3CC[C@@H](C(=O)O)C3)cc2Cl)cccc1-c1cccc(-c2ccc(OCCNCCO)cc2)c1C [Example 338, (1R,3S)-3-((5-chloro-2-((5-cyanopyridin-3-yl)methoxy)-4-((4″-(2-((2-hydroxyethyl)amino)ethoxy)-2,2′-dimethyl-[1,1′:3′,1″-terphenyl]-3-yl)methoxy)benzyl)amino)cyclopentane-1-carboxylic acid]	140	1060	0.179
Cc1c(COc2cc(OCc3cncc(C#N)c3)c(CNC[C@@H](O)CC(=O)O)cc2Cl)cccc1-c1cccc(-c2ccc(OC[C@@H](N)CO)cc2)c1C [Example 353, (S)-4-((4-((4″-((S)-2-amino-3-hydroxypropoxy)-2,2′-dimethyl-[1,1′:3′,1″-terphenyl]-3-yl)methoxy)-5-chloro-2-((5-cyanopyridin-3-yl)methoxy)benzyl)amino)-3-hydroxybutanoic acid]	215	153	0.311
Cc1c(COc2cc(OCc3cncc(C#N)c3)c(CN[C@@](C)(CO)C(=O)O)cc2Cl)cccc1-c1cccc(-c2nnc(CCN)o2)c1C [Example 329, (S)-2-((4-((3′-(5-(2-aminoethyl)-1,3,4-oxadiazol-2-yl)-2,2′-dimethyl-[1,1′-biphenyl]-3-yl)methoxy)-5-chloro-2-((5-cyanopyridin-3-yl)methoxy)benzyl)amino)-3-hydroxy-2-methylpropanoic acid]	290	466	0.284
COc1nc(-c2cccc(-c3cccc(-c4ccc5c(c4)C[C@@H](N)C5)c3Cl)c2Cl)ccc1C1=NCCN1 [Example 625]	98.2	≥ 50000	0.238
Cc1c(COc2cc(OCc3cncc(C#N)c3)c(CNC[C@@H](O)CC(=O)O)cc2Cl)cccc1-c1cccc(-c2ccc3c(CCNC[C@@H](O)CC(=O)O)coc3c2)c1C [Example 348, (S)-4-((4-((3′-(3-(2-(((S)-3-carboxy-2-hydroxypropyl)amino)ethyl)benzofuran-6-yl)-2,2′-dimethyl-[1,1′-biphenyl]-3-yl)methoxy)-5-chloro-2-((5-cyanopyridin-3-yl)methoxy)benzyl)amino)-3-hydroxybutanoic acid]	80.4	381	0.122
COc1nc(-c2cccc(-c3cccc4c3CC[C@@H]4Oc3nc(OC)c(CN4CCCC(C)(C(=O)O)C4)cc3Cl)c2Cl)ccc1CNC[C@@H]1CCC(=O)N1 (stereo partly drawn) [Example 761]	13.2	10	0.064
C[C@@](CO)(NCc1ccc(O[C@H]2CCc3c(-c4cccc(-c5ccc(C6=NCCN6)cc5)c4Cl)cccc32)nc1OCc1cncc(C#N)c1)C(=O)O [Example 740]	53.6	288	0.064
Cc1c(COc2cc(OCc3cncc(C#N)c3)c(CN[C@@](C)(CO)C(=O)O)cc2Cl)cccc1-c1cccc(Nc2nccc3cc(CNCCO)cnc23)c1C [Example 557]	137	135	0.201
COc1cc(OCc2cccc(-c3cccc(COc4cc(OC)c(CNC[C@@H](O)CC(=O)O)cc4C#N)c3C)c2C)c(C#N)cc1CNC[C@@H](O)CC(=O)O [Example 523]	≥ 10000	129	0.295
C[C@@](CO)(NCc1cc(Cl)c(OCc2cccc(-c3cccc(-c4ccc(OCCN5CC6(CCC(=O)N6)C5)cc4)c3Cl)c2Cl)nc1OCc1cc(C#N)cc(C#N)c1)C(=O)O [Example 566]	39.4	86	0.11
N#Cc1cncc(COc2nc(O[C@H]3CCc4c(-c5cccc6c5CC[C@@H]6Oc5nc(OCc6cncc(C#N)c6)c(C6=NCCN6)cc5Br)cccc43)c(Br)cc2C2=NCCN2)c1 [Example 752]	82.5	471	0.779
Cc1c(COc2cc(OCc3cc(S(C)(=O)=O)cc(S(C)(=O)=O)c3)c(CN[C@@](C)(CO)C(=O)O)cc2Cl)cccc1-c1cccc(-c2ccc(CCCN3CC[C@@H](O)C3)cc2)c1C [Example 467]	111	197	0.161
Cc1c(COc2cc(OCc3cncc(C#N)c3)c(CN3CC[C@@H](O)C3)cc2Cl)cccc1-c1cccc(-c2ccc(CN3CC(CC(=O)O)C3)cc2)c1C [Example 582]	347	147	1.3
COc1ccc(-c2cccc(-c3cccc(COc4cc(OCc5cncc(C#N)c5)c(CN[C@@](C)(CO)C(=O)O)cc4Cl)c3C)c2C)cc1CN [Example 440]	113	251	0.115
